Experimental data reported in patent US11964962B2, “Substituted pyridazinone compound and use thereof” (SHANDONG FIRST MEDICAL UNIVERSITY & SHANDONG ACADEMY OF …, priority 2020, dated 2024).

Key:
L929 mouse fibroblasts = assay: Cytotoxicity in normal cell line L929 (CCK-8 proliferation assay); assay type: cell-based; details: 48 h treatment, CCK-8, absorbance 450 nm, read-out: IC50 for proliferation of L929 cell lines
Protocol: Concentration of L929 mouse fibroblasts was adjusted to 4×10^5 cells/mL. The cells were seeded in a 96 well plate with […] per well. Wells not supplied with the cells (blank group) were provided. The cells were cultivated on the plate and were allowed to adhere overnight. Then, cell culture supernatants were collected, and 200 μL of test compound at various concentrations were added to the corresponding cell culture supernatants. Control and compound-treated cell culture supernatants were included in each experiment with triplicate wells for each experimental group, and were cultivated for a further 48 h. Then, the resulting cell culture supernatants were again collected, and fresh medium supplemented with 10% CCK-8 solution was added thereto. Incubation for an additional 3 h was carried out. Thereafter, the absorbance of the medium was measured at 450 nm wavelength, and the inhibitory rate of cell proliferation by test compound was calculated according to the equation below: R (%)=1−(Aexperiment−Ablank)/(Acontrol−Ablank)

THRα = target: T1, THRα (Homo sapiens, UniProt P10827); assay: THRα agonist activity, fluorescence ratio 665 nm/615 nm with EE-RxRα and biotin-GRIP; assay type: biochemical; details: incubated overnight at 4° C.
T1 construct: GST
T1 sequence (P10827 1-410 isoform P10827-2): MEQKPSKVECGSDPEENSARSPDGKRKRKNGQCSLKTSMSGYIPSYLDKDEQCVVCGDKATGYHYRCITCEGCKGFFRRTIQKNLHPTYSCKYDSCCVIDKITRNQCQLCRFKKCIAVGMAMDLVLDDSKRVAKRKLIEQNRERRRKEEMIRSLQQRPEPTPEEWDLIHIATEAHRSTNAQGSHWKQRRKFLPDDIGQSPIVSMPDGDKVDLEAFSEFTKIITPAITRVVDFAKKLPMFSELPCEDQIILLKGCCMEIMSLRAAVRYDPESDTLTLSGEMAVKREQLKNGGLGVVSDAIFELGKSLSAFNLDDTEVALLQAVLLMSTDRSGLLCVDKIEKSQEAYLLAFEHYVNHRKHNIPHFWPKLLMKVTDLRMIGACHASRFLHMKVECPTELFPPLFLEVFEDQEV
T1 sequence (P19793 225-462 partner limits assumed): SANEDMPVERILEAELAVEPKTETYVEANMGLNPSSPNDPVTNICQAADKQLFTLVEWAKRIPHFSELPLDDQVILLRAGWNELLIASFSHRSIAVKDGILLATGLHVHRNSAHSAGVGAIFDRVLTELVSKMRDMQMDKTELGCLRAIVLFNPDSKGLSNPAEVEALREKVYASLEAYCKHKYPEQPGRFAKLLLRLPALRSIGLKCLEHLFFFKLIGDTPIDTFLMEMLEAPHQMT
T1 sequence (Q15596 679-703 partner limits assumed): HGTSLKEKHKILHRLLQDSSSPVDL
Protocol: (§1) Test compound was dissolved and serially diluted in dimethyl sulfoxide (DMSO) with a final compound concentration of 60 mM. […] Buffer 1 was employed again to prepare EE-RxRα at the same concentrations as those of THRα and THRβ, respectively. Buffer 1+5% DMSO was employed to prepare biotin-GRIP (THRα: […], THRβ: 100 nM). Buffer 2 (50 mM Tris, pH 7.4, 100 mM NaCl, and 0.2 mg/mL BSA) was employed to prepare a mixed solution of 2×Eu-anti-GST and 2×streptavidin-d2. 5 μL of the THRα (THRβ) solution+5 μL of EE-RxRα+2.5 μL of the DMSO solution of test compound+2.5 μL of biotin-GRIP+5 μL of the mixed solution of 2×Eu-anti-GST and 2×streptavidin-d2 was employed as the reaction system, and incubated overnight at 4° C.

THRβ = target: T2, THRβ (Homo sapiens, UniProt P10828); assay: THRβ agonist activity, fluorescence ratio 665 nm/615 nm with EE-RxRα and biotin-GRIP; assay type: biochemical; details: incubated overnight at 4° C.
T2 construct: GST
T2 sequence (P10828 1-461): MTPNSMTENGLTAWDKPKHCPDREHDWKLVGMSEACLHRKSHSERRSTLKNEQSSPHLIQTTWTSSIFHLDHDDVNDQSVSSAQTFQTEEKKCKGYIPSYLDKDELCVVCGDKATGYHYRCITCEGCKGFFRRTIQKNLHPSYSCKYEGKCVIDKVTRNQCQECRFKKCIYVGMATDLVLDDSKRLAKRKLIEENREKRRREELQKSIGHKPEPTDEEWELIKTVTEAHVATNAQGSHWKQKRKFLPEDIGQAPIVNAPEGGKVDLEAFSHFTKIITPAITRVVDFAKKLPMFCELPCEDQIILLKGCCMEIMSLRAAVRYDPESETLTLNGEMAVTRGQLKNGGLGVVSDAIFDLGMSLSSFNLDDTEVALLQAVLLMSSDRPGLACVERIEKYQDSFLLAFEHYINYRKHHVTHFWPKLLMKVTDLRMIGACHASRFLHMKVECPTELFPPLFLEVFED
T2 sequence (P19793 225-462 partner limits assumed): T1 sequence (P19793 225-462 partner limits assumed)
T2 sequence (Q15596 679-703 partner limits assumed): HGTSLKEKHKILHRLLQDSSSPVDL
Protocol: as §1

| EC50 (THRα) | EC50 (THRβ) | Structure (SMILES) | IC50 (L929 mouse fibroblasts) |
| --- | --- | --- | --- |
| 0.126 µM | 0.101 µM | CC(C)(C)c1cc(Oc2c(Cl)cc(-n3nc(C#N)c(=O)[nH]c3=O)cc2Cl)n[nH]c1=O [Compound 1, 2-(4-((5-(tert-butyl)-6-oxo-1,6-dihydropyridazin-3-yl)oxy)-3,5-dichlorophenyl)-3,5-dioxo-2,3,4,5-tetrahydro-1,2,4-triazine-6-carbonitrile] | > 50 µM |
| 5.38 µM | 0.021 µM | CC(C)(C)c1cc(Oc2ccc(-n3nc(C#N)c(=O)[nH]c3=O)cc2F)n[nH]c1=O [Compound 2, 2-(4-((5-(tert-butyl)-6-oxo-1,6-dihydropyridazin-3-yl)oxy)-3-fluorophenyl)-3,5-dioxo-2,3,4,5-tetrahydro-1,2,4-triazine-6-carbonitrile] | > 50 µM |
| 1.4 µM | 0.81 µM | CC(C)(C)c1cc(Oc2ccc(-n3nc(C#N)c(=O)[nH]c3=O)cc2Cl)n[nH]c1=O [Compound 3] | > 50 µM |
| > 60 µM | 1.57 µM | CC(C)(C)c1cc(Oc2ccc(-n3nc(C#N)c(=O)[nH]c3=O)c(Cl)c2)n[nH]c1=O [Compound 4] | > 50 µM |
| 0.883 µM | 4.9 µM | COc1cc(-n2nc(C#N)c(=O)[nH]c2=O)ccc1Oc1cc(C(C)(C)C)c(=O)[nH]n1 [Compound 5] | > 50 µM |
| 6.15 µM | 0.0326 µM | N#Cc1nn(-c2ccc(Oc3cc(CC4CCCC4)c(=O)[nH]n3)c(Cl)c2)c(=O)[nH]c1=O [Compound 8] | > 50 µM |
| 4.76 µM | 0.642 µM | N#Cc1nn(-c2ccc(Oc3cc(CC4CCCC4)c(=O)[nH]n3)c(Br)c2)c(=O)[nH]c1=O [Compound 9] | > 50 µM |
|  | 1.52 µM | N#Cc1nn(-c2ccc(Oc3cc(CC4CCCC4)c(=O)[nH]n3)cc2Cl)c(=O)[nH]c1=O [Compound 10] | > 50 µM |
| 2.14 µM | 0.372 µM | N#Cc1nn(-c2cc(Cl)c(Oc3cc(CC4CCCC4)c(=O)[nH]n3)cc2Cl)c(=O)[nH]c1=O [Compound 11] | > 50 µM |
| 8.68 µM | 0.723 µM | COc1cc(-n2nc(C#N)c(=O)[nH]c2=O)ccc1Oc1cc(CC2CCCC2)c(=O)[nH]n1 [Compound 12] | > 50 µM |
| > 60 µM | 1.9 µM | N#Cc1nn(-c2ccc(Oc3cc(CC4CCCC4)c(=O)[nH]n3)cc2)c(=O)[nH]c1=O [Compound 13] | > 50 µM |
| 3.39 µM | 0.0254 µM | CC(C)Cc1cc(Oc2c(Cl)cc(-n3nc(C#N)c(=O)[nH]c3=O)cc2Cl)n[nH]c1=O [Compound 14] | > 50 µM |
|  | 1.52 µM | CC(C)Cc1cc(Oc2ccc(-n3nc(C#N)c(=O)[nH]c3=O)cc2Br)n[nH]c1=O [Compound 15] | > 50 µM |
| 2.11 µM | 0.0311 µM | CC(C)(C)Cc1cc(Oc2c(Cl)cc(-n3nc(C#N)c(=O)[nH]c3=O)cc2Cl)n[nH]c1=O [Compound 18] | > 50 µM |
| 11.8 µM | 0.0668 µM | CC(C)(C)Cc1cc(Oc2ccc(-n3nc(C#N)c(=O)[nH]c3=O)cc2Cl)n[nH]c1=O [Compound 19] | > 50 µM |
|  | 4.58 µM | CC(C)(C)Cc1cc(Oc2cc(Cl)c(-n3nc(C#N)c(=O)[nH]c3=O)cc2Cl)n[nH]c1=O [Compound 20] | > 50 µM |
| 19.9 µM | 1.52 µM | COc1cc(-n2nc(C#N)c(=O)[nH]c2=O)ccc1Oc1cc(CC(C)(C)C)c(=O)[nH]n1 [Compound 21] | > 50 µM |
|  | 0.117 µM | CC(C)c1cc(Oc2cc(Cl)c(-n3nc(C#N)c(=O)[nH]c3=O)cc2Cl)n[nH]c1=O [Compound 29] | > 50 µM |
|  | 7.55 µM | N#Cc1nn(-c2ccc(Oc3cc(C4CCCC4)c(=O)[nH]n3)cc2Cl)c(=O)[nH]c1=O [Compound 33] | > 50 µM |
|  | > 60 µM | CC(C)(C)Cc1cc(Oc2ccc(-n3cc(C#N)c(=O)[nH]c3=O)c(Cl)c2)n[nH]c1=O [Compound 45] | > 50 µM |
